Assay results as given in article PMC7116804 (Green chemistry : an international journal and green …, 2019).

Molecular target: Aa-ADH (Aromatoleum aromaticum, UniProt Q5P5I4)
Assay: oxidation of diol […] isomer mixture, product analysis
Assay type: biochemical
Conditions: NAD+ 1 mM recycled by NOX; Tris-HCl pH 7.5, 30 °C, 24 h

Aa-ADH, sequence (Q5P5I4 2-249): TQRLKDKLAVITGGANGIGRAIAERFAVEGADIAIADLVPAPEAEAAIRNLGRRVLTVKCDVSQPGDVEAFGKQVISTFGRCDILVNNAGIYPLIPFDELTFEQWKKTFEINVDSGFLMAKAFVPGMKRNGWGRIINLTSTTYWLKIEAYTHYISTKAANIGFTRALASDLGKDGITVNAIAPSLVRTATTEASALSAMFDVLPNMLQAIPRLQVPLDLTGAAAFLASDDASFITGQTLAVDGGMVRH

Row | Structure (SMILES) | oxidation of diol 3 isomer mixture, product analysis
1 | C[C@@H](O)[C@H](O)c1ccccc1 [1R,2R-3] | Aa-ADH oxidized 1R,2R-3, 1S,2S-3 and 1R,2S-3
2 | C[C@H](O)[C@@H](O)c1ccccc1 [1S,2S-3] | Aa-ADH oxidized 1R,2R-3, 1S,2S-3 and 1R,2S-3
